Measured values as given in US20230355647A1, “Marker for determining anti-cancer effects of mitochondrial oxidative phosphorylation pathway inhibitor” (NANJING SHIJIANG MEDICINE TECHNOLOGY CO., LTD, priority 2020, published 2023).

Columns and labels:
Type in all cases: cell-based
HCC15 = assay: Cell viability (CellTiter-Glo), HCC15; conditions: HCC15 cell line, 3-4 days of culture
Description: (§1) Cell viability was detected using the Promega CellTiter-Glo kit, the kit reflected cell viability by directly measuring intracellular ATP content. The inhibitory effect (IC50 value) of Gboxin, a mitochondrial oxidative phosphorylation pathway inhibitor, on different tumor cell lines was tested in the Example. The name, source, and culture condition of each tumor cell line were as follows:
Cell line HCC15 (KCLB, No. 70015) was cultured in 10% fetal bovine serum-containing RPMI1640 medium (+P/S).
(§2) The above tumor cells were cultured in the relevant medium (+P/S), and incubated for 3 h, then the gradient diluted Gboxin was added, and IC50 (50% inhibiting concentration) was measured after 3-4 days of culture.

OCI-LY-19 = assay: Cell viability (CellTiter-Glo), OCI-LY-19; conditions: Homo sapiens, OCI-LY19; OCI-LY-19 cell line, 3-4 days of culture
Description: as §1
Cell line OCI-LY-19 (DSMZ, No. ACC-528) was cultured in 80-90% alpha-MEM medium containing 10-20% h.i. FBS (+P/S).
as §2

22RV1 = assay: Cell viability (CellTiter-Glo), 22RV1; conditions: Homo sapiens; 22RV1 cell line, 3-4 days of culture
Description: as §1
Cell line 22RV1 (ATCC, No. CRL-2505) was cultured in 10% fetal bovine serum-containing RPMI1640 medium (+P/S).
as §2

OCI-AML-5 = assay: Cell viability (CellTiter-Glo), OCI-AML-5; conditions: Homo sapiens; OCI-AML-5 cell line, 3-4 days of culture
Description: as §1
Cell line OCI-AML-5 (DSMZ, No. ACC-247) was cultured in alpha-MEM medium containing 20% fetal bovine serum and 10% volume fraction of 5637 cell line adjusted medium (+P/S).
as §2

HCC1806 = assay: Cell viability (CellTiter-Glo), HCC1806; conditions: Homo sapiens; HCC1806 cell line, 3-4 days of culture
Description: as §1
Cell line HCC1806 (ATCC, No. CRL-2335) was cultured in 10% fetal bovine serum-containing RPMI1640 medium (+P/S).
as §2

U-937 = assay: Cell viability (CellTiter-Glo), U-937; conditions: Homo sapiens; U-937 cell line, 3-4 days of culture
Description: as §1
Cell line U-937 (ATCC, No. CRL-1593.2) was cultured in 10% fetal bovine serum-containing RPMI1640 medium (+P/S).
as §2

HCC70 = assay: Cell viability (CellTiter-Glo), HCC70; conditions: Homo sapiens; HCC70 cell line, 3-4 days of culture
Description: as §1
Cell line HCC70 (ATCC, No. CRL-2315) was cultured in 10% fetal bovine serum-containing RPMI1640 medium (+P/S).
as §2

U-87 MG = assay: Cell viability (CellTiter-Glo), U-87 MG; conditions: Homo sapiens; U-87 MG cell line, 3-4 days of culture
Description: as §1
Cell line U-87 MG (ATCC, No. HTB-14) was cultured in 10% fetal bovine serum-containing EMEM medium (+P/S).
as §2

SU.86.86 = assay: Cell viability (CellTiter-Glo), SU.86.86; conditions: Homo sapiens; SU.86.86 cell line, 3-4 days of culture
Description: as §1
Cell line SU.86.86 (ATCC, No. CRL-1837) was cultured in 10% fetal bovine serum-containing RPMI1640 medium (+P/S).
as §2

NCI-H196 = assay: Cell viability (CellTiter-Glo), NCI-H196; conditions: NCI-H196 cell line, 3-4 days of culture
Description: as §1
Cell line NCI-H196 (ATCC, No. CRL-5823) was cultured in 10% fetal bovine serum-containing RPMI1640 medium (+P/S).
as §2

PC-3 = assay: Cell viability (CellTiter-Glo), PC-3; conditions: Homo sapiens; PC-3 cell line, 3-4 days of culture
Description: as §1
Cell line PC-3 (ATCC, No. CRL-1435) was cultured in 10% fetal bovine serum-containing F-12K medium (+P/S).
as §2

GB-1 = assay: Cell viability (CellTiter-Glo), GB-1; conditions: Homo sapiens; GB-1 cell line, 3-4 days of culture
Description: as §1
Cell line GB-1 (JCRB, No. IFO50489) was cultured in 10% fetal bovine serum-containing DMEM medium (+P/S).
as §2
Cell viability was detected using the Promega CellTiter-Glo kit, the kit reflected cell viability by directly measuring intracellular ATP content. In this experiment, the IC50 values of Oligomycin A or IACS-010759, a mitochondrial oxidative phosphorylation pathway inhibitor, on different tumor cells was determined.
The different tumor cells were cultured in the relevant medium (+P/S) as shown in Example 2, and incubated for 3 h, then the gradient diluted Oligomycin A or IACS-010759 was added respectively, and IC50 (50% inhibiting concentration) of Oligomycin A or IACS-010759 on different tumor cells was measured after 3-4 days of culture.

SF126 = assay: Cell viability (CellTiter-Glo), SF126; conditions: Homo sapiens, SF-126; SF126 cell line, 3-4 days of culture
Description: as §1, with “follows: Cell line SF126 (JCRB, No. IFO50286) was cultured in 10% fetal bovine serum-containing EMEM medium (+P/S). […] Cell viability was detected using the Promega CellTiter-Glo kit, the kit reflected cell viability by directly measuring intracellular ATP content.” for “follows:”

786-O = assay: Cell viability (CellTiter-Glo), 786-O; conditions: Homo sapiens, 786-0; 786-O cell line, 3-4 days of culture
Description: as §1, with “follows: Cell line 786-O (ATCC, No. CRL-1932) was cultured in 10% fetal bovine serum-containing RPMI1640 medium (+P/S). […] Cell viability was detected using the Promega CellTiter-Glo kit, the kit reflected cell viability by directly measuring intracellular ATP content.” for “follows:”

CCc1n(CC(=O)O[C@@H]2C[C@H](C)CC[C@H]2C(C)C)c2ccccc2[n+]1C.[Cl-] [Gboxin]
IC50 (HCC15): 2.26 µM | IC50 (OCI-LY-19): 2.51 µM | IC50 (22RV1): 2.53 µM | IC50 (OCI-AML-5): 2.74 µM | IC50 (HCC1806): 3.18 µM | IC50 (U-937): 4.06 µM | IC50 (HCC70): 11.2 µM | IC50 (U-87 MG): 12.3 µM | IC50 (SU.86.86): 13.7 µM | IC50 (NCI-H196): 19.3 µM | IC50 (PC-3): 21.3 µM | IC50 (GB-1): > 30 µM | IC50 (SF126): > 30 µM | IC50 (786-O): > 30 µM
